For data set [1], the system named is HCT-116. The data set is described as follows: Inhibition of colony formation in human HCT-116 cells preincubated for 1 hr followed by exposure to 2 Gy gamma irradiation and measured after 1 week by crystal violet staining based […] assay. The format is functional, cell-based. The settings on record: HCT-116, light or radiation study.
The target in data set [2] is Serine/threonine-protein kinase ATR (Homo sapiens, UniProt Q13535). The data set is described as follows: Inhibition of ATR (unknown origin) assessed as remaining activity at 1 uM in presence of [gamma33P-ATP] by radiometric assay.
Data set [3] deals with HCT-116. Kind of data set: Inhibition of colony formation in human HCT-116 cells at 0.01 uM preincubated for 1 hr followed by exposure to 2 Gy gamma irradiation and measured after 1 week by crystal violet staining based […] assay relative to control. The format is functional. The note with it: HCT-116, light or radiation study, time 169 hrs.
Data set [4] in a line: Metabolic stability in human liver microsomes assessed as half life at 1 uM in presence of NADPH-regenerating system by LC-MS/MS analysis. The format is ADME, Microsome. On the technique in general: Liver microsomes are a subcellular fraction often used to study metabolism.
Data set [5] in a line: Metabolic stability in human liver microsomes assessed as clearance at 1 uM in presence of NADPH-regenerating system by LC-MS/MS analysis. The format is ADME, Microsome.
Data set [6] has as its target T1, Serine-protein kinase ATM (Homo sapiens, UniProt Q13315). Kind of data set: Inhibition of ATM (unknown origin) preincubated with compound for 30 mins followed by substrate addition and measured after 2 hrs by HTRF method. On the technique in general: In TR-FRET formats the signal depends on donor and acceptor labels being close together.
The target in data set [7] is T1, Serine-protein kinase ATM. Kind of data set: Inhibition of ATM (unknown origin) assessed as remaining activity at 0.01 uM preincubated with compound for 30 mins followed by substrate addition and measured after 2 hrs by HTRF method relative to control. The note with it: time 2.5 hrs.
For data set [8], the system named is HCT-116. The data set is described as follows: Antiproliferative activity against human HCT-116 cells assessed as cell survival at 1 uM incubated for 6 days by MTT assay relative to control. The format is functional. The settings on record: HCT-116, 144 h, time 6 day, read-out: Survival.
The target of data set [9] is T1, Serine-protein kinase ATM. Kind of data set: Inhibition of ATM (unknown origin) assessed as remaining activity at 1 uM preincubated with compound for 30 mins followed by substrate addition and measured after 2 hrs by HTRF method relative to control. The settings on record: time 2.5 hrs.

T1 sequence (Q13315 whole entry): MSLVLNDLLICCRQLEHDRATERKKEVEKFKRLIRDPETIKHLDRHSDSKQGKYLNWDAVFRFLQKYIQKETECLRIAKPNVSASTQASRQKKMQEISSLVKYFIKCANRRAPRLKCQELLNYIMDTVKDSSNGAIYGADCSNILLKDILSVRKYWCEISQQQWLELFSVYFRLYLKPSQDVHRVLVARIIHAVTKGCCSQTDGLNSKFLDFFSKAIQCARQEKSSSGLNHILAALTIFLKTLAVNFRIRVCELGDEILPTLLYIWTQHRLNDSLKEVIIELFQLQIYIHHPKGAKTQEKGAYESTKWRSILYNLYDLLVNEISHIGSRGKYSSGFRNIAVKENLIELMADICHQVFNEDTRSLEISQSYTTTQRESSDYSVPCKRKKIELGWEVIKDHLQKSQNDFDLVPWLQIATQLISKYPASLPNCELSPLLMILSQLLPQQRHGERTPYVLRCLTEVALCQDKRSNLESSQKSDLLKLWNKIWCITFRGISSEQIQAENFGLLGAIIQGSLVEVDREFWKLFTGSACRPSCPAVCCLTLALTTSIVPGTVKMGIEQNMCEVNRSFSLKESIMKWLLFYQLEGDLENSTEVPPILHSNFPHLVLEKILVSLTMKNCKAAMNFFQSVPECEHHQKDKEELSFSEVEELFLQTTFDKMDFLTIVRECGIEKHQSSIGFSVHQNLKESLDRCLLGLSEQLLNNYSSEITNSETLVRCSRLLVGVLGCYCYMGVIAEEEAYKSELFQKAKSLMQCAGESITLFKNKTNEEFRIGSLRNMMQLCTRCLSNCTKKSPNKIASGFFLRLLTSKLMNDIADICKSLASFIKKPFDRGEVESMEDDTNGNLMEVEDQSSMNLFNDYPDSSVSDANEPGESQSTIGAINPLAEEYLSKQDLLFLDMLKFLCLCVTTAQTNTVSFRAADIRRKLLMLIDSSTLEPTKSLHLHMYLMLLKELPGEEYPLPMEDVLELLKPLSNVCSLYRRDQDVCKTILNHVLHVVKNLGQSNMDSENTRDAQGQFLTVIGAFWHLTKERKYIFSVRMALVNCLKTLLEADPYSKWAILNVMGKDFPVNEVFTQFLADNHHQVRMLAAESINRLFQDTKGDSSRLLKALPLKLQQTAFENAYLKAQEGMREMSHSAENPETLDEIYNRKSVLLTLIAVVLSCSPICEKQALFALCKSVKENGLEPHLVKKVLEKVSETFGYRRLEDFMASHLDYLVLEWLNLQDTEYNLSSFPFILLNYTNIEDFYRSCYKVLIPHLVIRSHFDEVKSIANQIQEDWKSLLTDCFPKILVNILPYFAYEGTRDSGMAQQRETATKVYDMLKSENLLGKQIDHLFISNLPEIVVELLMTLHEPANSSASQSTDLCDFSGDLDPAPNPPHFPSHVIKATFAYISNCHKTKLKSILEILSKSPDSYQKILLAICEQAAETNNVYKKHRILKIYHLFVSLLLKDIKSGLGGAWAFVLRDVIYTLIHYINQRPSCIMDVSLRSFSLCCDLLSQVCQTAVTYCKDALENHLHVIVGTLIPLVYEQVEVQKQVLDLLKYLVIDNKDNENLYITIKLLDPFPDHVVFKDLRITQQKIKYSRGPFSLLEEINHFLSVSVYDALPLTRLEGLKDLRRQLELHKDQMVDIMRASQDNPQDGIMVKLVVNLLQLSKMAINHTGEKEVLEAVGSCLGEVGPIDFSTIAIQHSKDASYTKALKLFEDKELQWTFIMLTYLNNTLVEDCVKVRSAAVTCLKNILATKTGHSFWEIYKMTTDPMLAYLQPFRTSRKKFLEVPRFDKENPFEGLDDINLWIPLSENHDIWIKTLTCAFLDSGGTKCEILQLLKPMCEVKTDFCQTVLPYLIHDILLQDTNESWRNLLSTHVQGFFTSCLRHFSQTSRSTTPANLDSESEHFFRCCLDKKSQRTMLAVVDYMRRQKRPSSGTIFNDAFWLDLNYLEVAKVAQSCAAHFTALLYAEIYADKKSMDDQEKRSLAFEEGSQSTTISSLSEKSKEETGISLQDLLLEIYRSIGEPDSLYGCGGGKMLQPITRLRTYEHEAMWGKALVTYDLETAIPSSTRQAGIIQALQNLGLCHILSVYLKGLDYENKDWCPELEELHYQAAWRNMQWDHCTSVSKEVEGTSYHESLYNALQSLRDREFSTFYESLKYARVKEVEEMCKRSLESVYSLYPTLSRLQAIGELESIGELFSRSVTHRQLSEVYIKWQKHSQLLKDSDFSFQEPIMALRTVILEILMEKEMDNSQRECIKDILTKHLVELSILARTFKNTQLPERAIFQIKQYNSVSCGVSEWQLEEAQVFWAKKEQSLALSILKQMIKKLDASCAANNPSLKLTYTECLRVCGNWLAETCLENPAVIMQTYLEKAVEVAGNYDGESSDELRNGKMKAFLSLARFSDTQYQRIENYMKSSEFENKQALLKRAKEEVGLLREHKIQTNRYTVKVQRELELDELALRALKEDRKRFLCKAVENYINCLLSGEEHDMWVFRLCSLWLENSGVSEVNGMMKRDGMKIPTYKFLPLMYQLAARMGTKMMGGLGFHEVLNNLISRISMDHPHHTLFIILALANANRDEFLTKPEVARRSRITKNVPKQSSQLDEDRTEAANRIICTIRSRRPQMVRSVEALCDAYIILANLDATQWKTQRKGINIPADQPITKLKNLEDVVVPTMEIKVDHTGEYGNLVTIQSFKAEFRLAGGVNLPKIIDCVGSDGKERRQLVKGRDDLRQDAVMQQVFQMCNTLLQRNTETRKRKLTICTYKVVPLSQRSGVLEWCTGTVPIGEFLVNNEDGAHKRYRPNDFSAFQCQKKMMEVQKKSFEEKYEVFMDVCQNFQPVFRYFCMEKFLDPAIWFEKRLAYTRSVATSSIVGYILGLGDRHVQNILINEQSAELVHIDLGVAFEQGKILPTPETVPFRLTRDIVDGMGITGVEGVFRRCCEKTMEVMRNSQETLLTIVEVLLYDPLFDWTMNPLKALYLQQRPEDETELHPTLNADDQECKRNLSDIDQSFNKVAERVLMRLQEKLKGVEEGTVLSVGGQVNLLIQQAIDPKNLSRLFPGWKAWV

One may read the IC50 as the concentration that gives 50% inhibition. As a reminder, the inhibition is the share of the control response that was lost under treatment. The half-life is how long it takes for the measured level to halve. On to `CC(C)NC(=O)N(C)c1cnc2ccc(-c3ccc(OCCCN(C)C)nc3)cc2n1`, for which the figures for the IC50 in data set [1] and in data set [6] were 8.94 nM and 2 nM, respectively. Also, the Activity in [2] stood at 105%; in data set [7], 14%. In data set [3], this compound gave an inhibition at 0.01 µM of 58.4%. In addition, in [4], the half-life at 1 µM came out at 0.583 h. In [5], the CLH is 40 mL/min/g. Moreover, in data set [8], the viability at 1 µM is more than 83%.
`CCN(CC)CCCOc1ccc(-c2ccc3ncc(N(C)C(=O)NC(C)C)nc3c2)cn1`: the half-maximal inhibitory concentration (IC50) in data set [1] amounted to 6.97 nM; in data set [6], 1 nM. The same compound returned an inhibition at 0.01 µM in [3] of 72.8%. The half-life at 1 µM in data set [4] turned out to be 1.65 h. Moreover, the CLH in data set [5] turned out to be 14 mL/min/g. The Activity is -3% in data set [9] and 19% in data set [7]. In [8], the viability at 1 µM is more than 83%.
`CN(C)CCCOc1ccc(-c2ccc3ncc4c(c3c2)n(C2CCOCC2)c(=O)n4C)cn1` showed an IC50 in [1] of 0.46 nM. Further, testing at 0.01 µM in data set [3] gave an inhibition of 94.3%.
Regarding `CC(C)NC(=O)N(C)c1cnc2ccc(-c3ccc(OCCCN4CCCCC4)nc3F)cc2n1`, the IC50 in [1] was determined as 15.4 nM; in [6] it was 1 nM. Further, at 0.01 µM the inhibition in data set [3] was 68.7%. In [4], the half-life at 1 µM is 3.12 h. For the same compound, the CLH in data set [5] was determined as 7.4 mL/min/g.
As for `CN(C)CCCOc1ccc(-c2ccc3ncc(N(C)C(=O)NC4CCCCC4)nc3c2)cn1`, the concentration for half-maximal inhibition (IC50) worked out at 0.54 nM in data set [1] and 0.9 nM in [6]. For the same compound, the results for the Activity in [2] and in data set [7] were 94% and -1%, respectively. Also, in [3], testing at 0.01 µM gave an inhibition of 99.6%. In addition, the half-life at 1 µM in data set [4] came out at 0.25 h. Also, the CLH in [5] was found to be 94 mL/min/g. Besides, in [8], the viability at 1 µM is more than 83%.
For `CN(C)CCCOc1ccc(-c2ccc3ncc(N(C)C(=O)Nc4ccccc4Cl)nc3c2)cn1`, the half-maximal inhibitory concentration (IC50) in [1] amounted to 4.35 nM; in [6], 0.9 nM. In addition, the Activity in [2] worked out at 102%; in [7], 3%. Further, 0.01 µM produced 84.4% inhibition in data set [3]. Moreover, the half-life at 1 µM in data set [4] is 0.55 h. Moreover, in data set [5], the CLH amounted to 43 mL/min/g. The viability at 1 µM in data set [8] was more than 83%.
Turning to `CC(C)NC(=O)N(C)c1cnc2ccc(-c3ccc(OCCCN4CCN(C)CC4)nc3)cc2n1`, the results for the IC50 in data set [1] and in [6] were 5.41 nM and 3 nM, respectively. This compound also registered an inhibition at 0.01 µM in data set [3] of 73.6%. Further, the half-life at 1 µM in data set [4] worked out at 1.78 h. In data set [5], the CLH was 13 mL/min/g. For the same compound, the Activity in data set [7] is 5%. The viability at 1 µM in data set [8] was more than 83%.
On to `CC(C)NC(=O)N(C)c1cnc2ccc(-c3ccc(OCCCN4CCOCC4)nc3)cc2n1`, for which the IC50 in data set [1] worked out at 7.13 nM; in data set [6], 3 nM. Further, the inhibition at 0.01 µM in data set [3] was determined as 64.1%. Moreover, the half-life at 1 µM in data set [4] was determined as 1.02 h. For the same compound, the CLH in data set [5] is 24 mL/min/g. Further, the Activity in data set [7] stood at 4%. In addition, in [8], the viability at 1 µM is more than 83%.
As for `Cc1nc(OCCCN2CCCCC2)ccc1-c1ccc2ncc(N(C)C(=O)NC(C)C)nc2c1`, the figures for the IC50 in data set [1] and in data set [6] were 21.9 nM and 9 nM, respectively. In [3], at 0.01 µM the inhibition was 48.2%. The half-life at 1 µM in [4] was found to be 7.7 h. Moreover, the CLH in [5] was found to be 3 mL/min/g. Also, the Activity in data set [9] was -4%; in data set [7], 16%.
As for `CC(C)NC(=O)N(C)c1cnc2ccc(-c3ccc(OCCCN4CCCC4)nc3F)cc2n1`, the IC50 in data set [1] was determined as 26.5 nM; in data set [6], 4 nM. In addition, in data set [3], the inhibition at 0.01 µM turned out to be 43.4%. Besides, the half-life at 1 µM in data set [4] turned out to be 3.4 h. Besides, the CLH in [5] worked out at 6.8 mL/min/g.
On to `C=CCNC(=O)N(C)c1cnc2ccc(-c3ccc(OCCCN(C)C)nc3)cc2n1`, for which the IC50 in data set [1] turned out to be 12.2 nM; in data set [6] it was 2 nM. The Activity in [2] is 103%; in data set [7] it was 11%. The compound further registered an inhibition at 0.01 µM in data set [3] of 49.7%. The half-life at 1 µM in data set [4] turned out to be 0.417 h. Further, the CLH in data set [5] amounted to 55 mL/min/g.

The values are drawn from ChEMBL document CHEMBL5346961, “Discovery and Evaluation of 3-Quinoxalin Urea Derivatives as Potent, Selective, and Orally Available ATM Inhibitors Combined with Chemotherapy for the Treatment of Cancer via Goal-Oriented Molecule Generation and Virtual Screening” (J Med Chem, 2023).
